Assay results published in ChEMBL document CHEMBL1201862, “PubChem BioAssay data set” (2004).
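Each compound was tested at five concentrations against cells in 96-well plates for 48 hours. At the GI50, growth is halved.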 Active and inactive are the calls of the source. Cut-off read from the data, not from the text of the source: active = GI50 up to about 1.1 µM and inactive = higher.

Experiments:
Test in all cases: NCI-60 cell line screen, 48 h
[1] = test system: NCI-H522
[2] = test system: OVCAR-8
[3] = test system: MDA-N
[4] = test system: SK-MEL-28
[5] = test system: TK-10
[6] = test system: UACC-257
[7] = test system: COLO 205
[8] = test system: CAKI-1
[9] = test system: KM12
[10] = test system: SF-295
[11] = test system: HCT-15
[12] = test system: MDA-MB-435
[13] = test system: UO-31
[14] = test system: M14
[15] = test system: RPMI-8226
[16] = test system: LOX IMVI
[17] = test system: OVCAR-3
[18] = test system: DU-145
[19] = test system: NCI-H226
[20] = test system: 786-0

Compound	GI50 [1]	GI50 [2]	GI50 [3]	GI50 [4]	GI50 [5]	GI50 [6]	GI50 [7]	GI50 [8]	GI50 [9]	GI50 [10]	GI50 [11]	GI50 [12]	GI50 [13]	GI50 [14]	GI50 [15]	GI50 [16]	GI50 [17]	GI50 [18]	GI50 [19]	GI50 [20]
N#CC(c1nc2ccccc2s1)c1nc(Cl)ncc1Br (stereo not given)	20.7 µM (inactive)	30.4 µM (inactive)	36 µM (inactive)	97.9 µM (inactive)	37.3 µM (inactive)	77.4 µM (inactive)	46.3 µM (inactive)	33.4 µM (inactive)	40.1 µM (inactive)	42.2 µM (inactive)	29.1 µM	50.6 µM (inactive)	36.7 µM (inactive)	44.6 µM (inactive)	25.4 µM (inactive)	29.3 µM (inactive)	27.2 µM (inactive)	45.7 µM (inactive)	39.5 µM (inactive)	30.3 µM (inactive)
OC(c1cc(C23CC4CC(CC(C4)C2)C3)nc2c(Cl)cc(Cl)cc12)C1CCCCN1 (stereo not given)	1.57 µM (inactive)	2.36 µM (inactive)	1.68 µM (inactive)	2.06 µM (inactive)	1.84 µM (inactive)	1.97 µM (inactive)	1.71 µM (inactive)	1.69 µM (inactive)	1.67 µM (inactive)	1.67 µM (inactive)	1.83 µM	1.67 µM (inactive)	0.204 µM (active)	1.8 µM (inactive)	1.77 µM (inactive)	1.49 µM (inactive)	1.78 µM (inactive)	1.77 µM (inactive)	2.07 µM (inactive)	1.57 µM (inactive)
CC1CC(=O)Nc2ccccc2N1C(=O)C1CC1 (stereo not given)	> 100 µM (inactive)	> 100 µM (inactive)	> 100 µM (inactive)	> 100 µM (inactive)	> 100 µM (inactive)	> 100 µM (inactive)	> 100 µM (inactive)	> 100 µM (inactive)	> 100 µM (inactive)	> 100 µM (inactive)	> 100 µM	> 100 µM (inactive)	> 100 µM (inactive)	> 100 µM (inactive)	> 100 µM (inactive)	> 100 µM (inactive)	> 100 µM (inactive)	> 100 µM (inactive)	> 100 µM (inactive)	> 100 µM (inactive)
O=C(Nc1ccccc1)N1CCN(C(=O)Nc2ccccc2)C1=S	90.2 µM (inactive)	34.6 µM (inactive)	> 100 µM (inactive)	> 100 µM (inactive)	38.5 µM (inactive)	> 100 µM (inactive)	> 100 µM (inactive)	41.7 µM (inactive)	> 100 µM (inactive)	23.4 µM (inactive)	88.5 µM	> 100 µM (inactive)	23.7 µM (inactive)	56.4 µM (inactive)	> 100 µM (inactive)	> 100 µM (inactive)	> 100 µM (inactive)	> 100 µM (inactive)	28.1 µM (inactive)	37 µM (inactive)
Cc1nc(Cl)c2sc(=S)n(-c3ccc(F)cc3)c2n1	2.84 µM (inactive)	14.6 µM (inactive)	1.87 µM (inactive)	2.33 µM (inactive)	1.99 µM (inactive)	2.54 µM (inactive)	4.47 µM (inactive)	1.56 µM (inactive)	12.7 µM (inactive)	10.9 µM (inactive)	3.21 µM	2.59 µM (inactive)	1.69 µM (inactive)	2.11 µM (inactive)	3.4 µM (inactive)	1.77 µM (inactive)	1.94 µM (inactive)	1.51 µM (inactive)	17.4 µM (inactive)	2.45 µM (inactive)
O=C(NCCCNCCCCNCCCNC(=O)c1cc(-c2ccccc2)nc2ccccc12)c1cc(-c2ccccc2)nc2ccccc12	2.01 µM (inactive)	1.82 µM (inactive)	1.77 µM (inactive)	1.87 µM (inactive)	8.07 µM (inactive)	3.74 µM (inactive)	1.91 µM (inactive)	20.3 µM (inactive)	2.19 µM (inactive)	3.26 µM (inactive)	20.1 µM	1.8 µM (inactive)	20.9 µM (inactive)	2.15 µM (inactive)	2.16 µM (inactive)	1.64 µM (inactive)	2.66 µM (inactive)	17.6 µM (inactive)	1.83 µM (inactive)	1.69 µM (inactive)
CC(C)c1ccc2c(c1)[C@@]1(C)CC[C@H](C)C(C)(C)C1CC2 (stereo not given in full)	27.4 µM (inactive)	18.6 µM (inactive)	26.1 µM (inactive)	17 µM (inactive)	17.6 µM (inactive)	19.5 µM (inactive)	20.1 µM (inactive)	23.9 µM (inactive)	18 µM (inactive)	20.6 µM (inactive)	18.1 µM	16.9 µM (inactive)	37.9 µM (inactive)	18.9 µM (inactive)	18.4 µM (inactive)	17.6 µM (inactive)	25.4 µM (inactive)	25.7 µM (inactive)	17.3 µM (inactive)	18.1 µM (inactive)
CCC1c2[nH]c3ccccc3c2C[C@H]2C(=O)NC(C)C(=O)N12 (stereo not given in full)	> 100 µM (inactive)	> 100 µM (inactive)	> 100 µM (inactive)	> 100 µM (inactive)	> 100 µM (inactive)	> 100 µM (inactive)	> 100 µM (inactive)	> 100 µM (inactive)	> 100 µM (inactive)	> 100 µM (inactive)	> 100 µM	> 100 µM (inactive)	> 100 µM (inactive)	> 100 µM (inactive)	> 100 µM (inactive)	> 100 µM (inactive)	> 100 µM (inactive)	> 100 µM (inactive)	> 100 µM (inactive)	> 100 µM (inactive)
O=C(O)Cc1ccccc1 [PHENYLACETIC ACID]	> 100 µM (inactive)	> 100 µM (inactive)	> 100 µM (inactive)	> 100 µM (inactive)	> 100 µM (inactive)	> 100 µM (inactive)	> 100 µM (inactive)	> 100 µM (inactive)	> 100 µM (inactive)	841 µM (inactive)	> 100 µM	> 100 µM (inactive)	> 100 µM (inactive)	> 100 µM (inactive)	> 100 µM (inactive)	> 100 µM (inactive)	> 100 µM (inactive)	> 100 µM (inactive)	> 100 µM (inactive)	> 100 µM (inactive)
CC12CC(=O)C3C(C(=O)C1)C32C (stereo not given)	> 100 µM (inactive)	> 100 µM (inactive)	> 100 µM (inactive)	> 100 µM (inactive)	> 100 µM (inactive)	> 100 µM (inactive)	> 100 µM (inactive)	> 100 µM (inactive)	0.488 µM (active)	> 100 µM (inactive)	> 100 µM	> 100 µM (inactive)	> 100 µM (inactive)	> 100 µM (inactive)	> 100 µM (inactive)	> 100 µM (inactive)	> 100 µM (inactive)	> 100 µM (inactive)	> 100 µM (inactive)	> 100 µM (inactive)
O=C1c2ccccc2C(=O)c2oc(Br)cc21	1.55 µM (inactive)	1.38 µM (inactive)	0.132 µM (active)	0.34 µM (active)	2.9 µM (inactive)	0.266 µM (active)	1.92 µM (inactive)	1.76 µM (inactive)	1.23 µM (inactive)	0.269 µM (active)	0.566 µM	0.159 µM (active)	1.47 µM (inactive)	0.161 µM (active)	1.75 µM (inactive)	0.429 µM (active)	1.02 µM (active)	0.214 µM (active)	1.41 µM (inactive)	1.57 µM (inactive)
N#Cc1c(N)c2c(c(-c3ccccc3)c1-c1ccccc1)C(=O)N(O)C2=O	56.2 µM (inactive)	> 100 µM (inactive)	82 µM (inactive)	40.7 µM (inactive)	91.4 µM (inactive)	> 100 µM (inactive)	20.2 µM (inactive)	> 100 µM (inactive)	29.6 µM (inactive)	38.7 µM (inactive)	70 µM	79.4 µM (inactive)	37 µM (inactive)	> 100 µM (inactive)	42.4 µM (inactive)	89.7 µM (inactive)	26.9 µM (inactive)	39.4 µM (inactive)	18.8 µM (inactive)	47.1 µM (inactive)
Cc1ccc(C)n1-c1ccccc1C1C=CN(C(=O)OC(C)(C)C)C=C1	16.6 µM (inactive)	32.7 µM (inactive)	46.2 µM (inactive)	44.9 µM (inactive)	67.3 µM (inactive)	34.7 µM (inactive)	17.2 µM (inactive)	33.3 µM (inactive)	14.9 µM (inactive)	30 µM (inactive)	20.6 µM	36.2 µM (inactive)	33.1 µM (inactive)	28.8 µM (inactive)	20.4 µM (inactive)	20.5 µM (inactive)	17.8 µM (inactive)	56.4 µM (inactive)	14.1 µM (inactive)	31.8 µM (inactive)
C=C1C(=O)C2=CC1CCC(=O)C1(C)CCC(OC(C)=O)C(C)(C)C1CC2O (stereo not given)	0.522 µM (active)	3.81 µM (inactive)	1.4 µM (inactive)	3.66 µM (inactive)	5.86 µM (inactive)	3.73 µM (inactive)	0.771 µM (active)	1.76 µM (inactive)	3.31 µM (inactive)	9.31 µM (inactive)	0.552 µM	3.24 µM (inactive)	2.06 µM (inactive)	2.64 µM (inactive)	2.53 µM (inactive)	1.14 µM (inactive)	3.73 µM (inactive)	3.03 µM (inactive)	7.76 µM (inactive)	3.01 µM (inactive)
